Converted amounts (≈) assume the structure as drawn. Starred links: 1 amine or outer side, 2 acyl side, 3 side chain; linkers in the order of their positions; H or OH if unused. Positions of bridges follow the written chain, without caps; N, C: chain ends. Non-standard residues stand in square brackets, D forms with d. Residues, ends and D or L forms follow the SMILES beside them. *: point of attachment. hTyr(3S-OH,4S-OH,3'-OSO3H) = N[C@H](C(=O)O)[C@H](O)[C@@H](O)c1ccc(O)c(OS(=O)(=O)O)c1; pTerphenylCO(4''-OnC5H11) = CCCCCOc1ccc(-c2ccc(-c3ccc(C(=O)*)cc3)cc2)cc1; Orn(4R-OH,5R-OH) = O=C([C@H](C[C@@H](O)[C@@H](O)N[*:3])N[*:1])[*:2]; hTyr(3S-OH,4S-OH) = N[C@H](C(=O)O)[C@H](O)[C@@H](O)c1ccc(O)cc1; Pro(3S-OH,4S-Me) = C[C@H]1CN[C@H](C(=O)O)[C@H]1O; X1 = CCCCCOc1ccc(-c2cc(-c3ccc(C(=O)*)cc3)no2)cc1; Gln(3R-OH) = NC(=O)C[C@@H](O)[C@H](N)C(=O)O; Hyp = O=C(O)[C@@H]1C[C@@H](O)CN1
Tests used:
Paecilomyces variotii = experiment: Antimicrobial activity against Paecilomyces variotii by microdilution method; format: functional
Paecilomyces lilacinus = experiment: Antimicrobial activity against Paecilomyces lilacinus by microdilution method; format: functional; settings: Purpureocillium lilacinum

| SMILES | MIC (Paecilomyces variotii) | MIC (Paecilomyces lilacinus) |
| --- | --- | --- |
| C[C@@H]1[C@H](O)[C@@H](C)/C=C/C=C/C=C/C=C/C=C/C=C/C=C/[C@H](O[C@@H]2O[C@H](C)[C@@H](O)[C@H](N)[C@@H]2O)C[C@@H]2O[C@](O)(C[C@@H](O)C[C@@H](O)[C@H](O)CC[C@@H](O)C[C@@H](O)CC(=O)O[C@H]1C)C[C@H](O)[C@H]2C(=O)O [AMPHOTERICIN B] | 0.04 mg/L (≈ 0.0433 µM) | 29.6 mg/L (≈ 32 µM) |
| CCCCCOc1ccc(-c2ccc(-c3ccc(C(=O)N[C@H]4C[C@@H](O)[C@@H](O)NC(=O)[C@@H]5[C@@H](O)[C@@H](C)CN5C(=O)[C@H]([C@@H](C)O)NC(=O)[C@H]([C@H](O)[C@@H](O)c5ccc(O)cc5)NC(=O)[C@@H]5C[C@@H](O)CN5C(=O)[C@H]([C@@H](C)O)NC4=O)cc3)cc2)cc1 [ANIDULAFUNGIN] ({pTerphenylCO(4''-OnC5H11)}-[Orn(4R-OH,5R-OH)]T[Hyp][hTyr(3S-OH,4S-OH)]T[Pro(3S-OH,4S-Me)]; lactam 1-C) | 0.016 mg/L (≈ 0.014 µM) | 27.1 mg/L (≈ 23.8 µM) |
| CC[C@H](C)C[C@H](C)CCCCCCCCC(=O)N[C@H]1C[C@@H](O)[C@@H](NCCN)NC(=O)[C@@H]2[C@@H](O)CCN2C(=O)[C@H]([C@H](O)CCN)NC(=O)[C@H]([C@H](O)[C@@H](O)c2ccc(O)cc2)NC(=O)[C@@H]2C[C@@H](O)CN2C(=O)[C@H]([C@@H](C)O)NC1=O [CASPOFUNGIN] | 0.44 mg/L (≈ 0.402 µM) | 27.9 mg/L (≈ 25.5 µM) |
| CCC(C)n1ncn(-c2ccc(N3CCN(c4ccc(OCC5COC(Cn6cncn6)(c6ccc(Cl)cc6Cl)O5)cc4)CC3)cc2)c1=O (stereo not drawn) [ITRACONAZOLE] | 0.06 mg/L (≈ 0.085 µM) | 13.4 mg/L (≈ 19 µM) |
| CCCCCOc1ccc(-c2cc(-c3ccc(C(=O)N[C@H]4C[C@@H](O)[C@@H](O)NC(=O)[C@@H]5[C@@H](O)[C@@H](C)CN5C(=O)[C@H]([C@H](O)CC(N)=O)NC(=O)[C@H]([C@H](O)[C@@H](O)c5ccc(O)c(OS(=O)(=O)O)c5)NC(=O)[C@@H]5C[C@@H](O)CN5C(=O)[C@H]([C@@H](C)O)NC4=O)cc3)no2)cc1 [MICAFUNGIN] (X1-[Orn(4R-OH,5R-OH)]T[Hyp][hTyr(3S-OH,4S-OH,3'-OSO3H)][Gln(3R-OH)][Pro(3S-OH,4S-Me)]; lactam 1-C) | 0.018 mg/L (≈ 0.0142 µM) | 25.6 mg/L (≈ 20.2 µM) |
| CC[C@@H]([C@H](C)O)n1ncn(-c2ccc(N3CCN(c4ccc(OC[C@@H]5CO[C@@](Cn6cncn6)(c6ccc(F)cc6F)C5)cc4)CC3)cc2)c1=O [POSACONAZOLE] | 0.04 mg/L (≈ 0.0571 µM) | 0.28 mg/L (≈ 0.4 µM) |
| C[C@@H](c1nc(-c2ccc(C#N)cc2)cs1)[C@](O)(Cn1cncn1)c1ccc(F)cc1F [RAVUCONAZOLE] | 4.89 mg/L (≈ 11.2 µM) | 0.73 mg/L (≈ 1.67 µM) |
| CN(C/C=C/C#CC(C)(C)C)Cc1cccc2ccccc12 [TERBINAFINE] | 1.53 mg/L (≈ 5.25 µM) | 0.51 mg/L (≈ 1.75 µM) |
| C[C@@H](c1ncncc1F)[C@](O)(Cn1cncn1)c1ccc(F)cc1F [VORICONAZOLE] | 4.18 mg/L (≈ 12 µM) | 0.45 mg/L (≈ 1.29 µM) |

— ChEMBL document CHEMBL1275470, “Susceptibility testing and molecular classification of Paecilomyces spp” (2008)
